Assay results from patent publication US11890279B2, “Quinolines that modulate SERCA and their use for treating disease” (Neurodon Corporation, priority 2020, dated 2024).
One block for each molecule: values may come before it.

Legend:
CSM14.1 cells = assay: ER stress cell survival assay (thapsigargin); assay type: cell-based; settings: for Cell Survival: compound 2 μM, about 15 μM thapsigargin, CSM14.1 cells; for EC50: dose-response;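 on cell survival: survival read as CellTiter-Glo luminescence after overnight incubation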
Description: ER Stress Cell Survival Assay
CSM14.1 cells were maintained in Complete Medium at 32° C.; wherein the Complete Medium contained Dulbecco's modified eagle medium (DMEM) with 10% fetal bovine serum (FSB), 1% L-glutamine, 100 IU/mL penicillin, and 100 μg/mL streptomycin. The cells were recovered from cultures by trypsinization and then seeded in 384 well plates (Greiner #781098) at a concentration of 1,000 cells/well in 20 μL of DMEM Assay Medium, wherein the DMEM Assay Medium contained 2% FBS, 100 IU/mL penicillin, and 100 μg/mL streptomycin. Seeding was performed using a MultiDrop Combi reagent broadcaster. The plates were incubated overnight at 32° C.
A test compound was prepared by 2-fold serial dilution in 100% DMSO using a BIOMEK® 2000 liquid handler (Beckman Coulter). A dose-response curve containing 10 concentrations of the test compound was obtained. Using a BIOMEK® FX liquid handler (Beckman Coulter), 2.5 μL of the test compound was transferred from the 100% DMSO serial dilution plate to an intermediate plate containing 47.5 μL of DMEM Assay Medium containing 2% FBS, 100 IU/mL penicillin, and 100 μg/mL streptomycin and mixed. To reduce or eliminate the interference from the compound's precipitation, 6 μL of the diluted compound was immediately transferred to the assay plate to achieve a high compound concentration of 100 μM in 99% DMEM Assay Medium and 1% DMSO. After the assay plates were incubated for 2 hrs, 4 μL of 112.5 μM thapsigargin (TG) (DMSO stock diluted into Assay TC Medium) was dispensed into each testing well with a MultiDrop Combi reagent broadcaster for a final concentration of about 15 μM TG. The tissue culture media (4 μL) containing vehicle only was transferred manually to each control cell using a 16 channel electronic pipette. […] High luminescence indicates cell survival.
Alternatively, a test compound was tested at a single compound concentration (e.g., 2 μM) to determine the effect of the compound on cell survival in comparison with vehicle.

SERCA (SR vesicles) = assay: Activation of SERCA, increase in Vmax; assay type: biochemical
Description: Test compounds were characterized over a range of concentrations using an NADH-linked, enzyme-coupled ATPase assay. Each well contained 2 mg or 7 mg of SR vesicles (optimized for skeletal or cardiac SR, respectively), 50 mM MOPS (pH 7.0), 100 mM KCl, 5 mM MgCl2, 1 mM EGTA, 0.2 mM NADH, 1 mM phosphoenol pyruvate, 5 IU pyruvate kinase, 5 IU lactate dehydrogenase, and 3.5 mg/mL A23187 (a calcium ionophore), and CaCl2 was added to set free [Ca2+] to the specific values. The assay was started upon addition of ATP at a final concentration of 5 mM, and read in a SpectraMax Plus microplate spectrophotometer and the ATPase activities were fitted using the Hill function.

HEK293 cells = assay: Protection against thapsigargin (TG)-induced cell death, HEK293; assay type: cell-based, human; settings: compound 20 μM; thapsigargin 15 μM; 24 hrs
Description: (§1) Protection against Thapsigargin (TG)-induced Cell-death. Human embryonic kidney (HEK293) cells were grown in Dulbecco's Modified Eagle's Medium (DMEM) with 10% FBS and 1% antibiotic antimycotic solution (ABAM). Mouse neuroblastoma (N2a) cells were grown in 1:1 DMEM:OPTI-MEM® with 5% FBS and 1% ABAM. All cells were grown in 10% CO2 in a humidified environment of the incubator. Cells grown in 96-well plates were exposed to a test compound (20 μM) for 2 hrs before addition of thapsigargin (15 μM for HEK293 cells and 1 μM for N2a cells) to induce ER stress. After incubation in cell-culture incubator for 24 hrs, ALAMARBLUE® regent (10% v/v) was added to the wells. Fluorescence reading was taken 2 hrs after the addition of the ALAMARBLUE® regent. Cell-viability was calculated as a percentage of relative fluorescence unit (RFU) compared to control.
(§2) The results are summarized in Table 2, where A represents a value greater than 50% cell rescue, B represents a value between 10% to 50% cell rescue, C represents a value between 1% to 10% cell rescue, and D represents a value no greater than 1% cell rescue.

N2a cells [1] = assay: Protection against thapsigargin (TG)-induced cell death, N2a; assay type: cell-based, mouse; settings: compound 20 μM; thapsigargin 1 μM; 24 hrs
Description: as §1, §2

N2a cells [2] = assay: Protection against hydrogen peroxide-induced cell death, N2a; assay type: cell-based, mouse; settings: compound 40 μM; hydrogen peroxide 200 μM
Description: Protection against Hydrogen Peroxide-induced Cell-death. N2a cells grown in 96-well plates were exposed to a test compound (40 μM) for 2 hrs before addition of hydrogen peroxide (200 μM). After 40 min of incubation with hydrogen peroxide, ALAMARBLUE® regent (10% v/v) was added to the wells. Fluorescence reading was taken 2 hrs after the addition of the ALAMARBLUE® regent. Cell-viability was calculated as a percentage of relative fluorescence unit (RFU) compared to control.
as §2

[3] = Pharmacokinetics in CD-1 mice; assay type: in vivo, mouse; settings: CD-1 mice; for F: 10 mg/kg P.O. vs 2 mg/kg i.v.; for AUC / Cmax / half-life: mouse, plasma, 2 mg/kg i.v. or 10 mg/kg P.O.
Description: Pharmacokinetics of test compounds were assessed in CD-1 mice. The compounds were formulated at 1 mg/mL in DMSO/Tween 80/water (10/10/80, vol/vol/vol) and dosed at 2 mg/kg intravenous (i.v.) or 10 mg/kg by oral gavage (P.O.) in triplicate. Blood was drawn at 0.25 h, 0.5 h, 1 hr, 2 hrs, 4 hrs, 8 hrs, and 24 hrs into EDTA containing tubes and plasma was harvested by centrifugation. Plasma (10 μL) containing 50% acetonitrile in water (5 μL) was added to 200 μL of ACN containing an internal standard. The samples were vortexed for 30 s. After centrifugation at […] and 4,000 rpm for 15 min, the supernatant was diluted 3 times with water. Then, 20 μL of diluted supernatant was injected into the LC/MS/MS system for quantitative analysis. The samples were injected onto an Agilent ZORBAX XDB-Phenyl 5μ column (50×2.10 mm). Mobile Phase A was water with 0.1% formic acid. Mobile Phase B was acetonitrile with 0.1% formic acid. Separation was achieved using a gradient of 70% A/30% B to 0% A/100% B over 2.10 min. A Shimadzu LCMS-8050 equipped with a turbo ion spray source was used for all analytical measurements. A positive ion MRM method was developed. Peak areas of the product ion were measured against the peak areas of the internal standard. Data was fit using WinNonLin (Pharsight Corporation, Mountain View, CA).

SMILES: Cc1ccc2cccc(NC(=O)c3ccc(C(C)(C)C)cc3)c2n1 [Compound A4, 4-(tert-Butyl)-N-(2-methylquinolin-8-yl)benzamide]
Cell Survival (CSM14.1 cells): D (D represents a value no greater than 1%)
EC50 (CSM14.1 cells): > 100 µM
Increase in Vmax at 10 μM (SERCA (SR vesicles)): B′ (B′ represents an increase between 20 to 50%)

SMILES: O=C(Nc1cccc2cccnc12)c1cccc(F)c1 [Compound A7, 3-Fluoro-N-(quinolin-8-yl)benzamide]
Increase in Vmax at 10 μM (SERCA (SR vesicles)): B′ (B′ represents an increase between 20 to 50%)

SMILES: COc1ccccc1C(=O)Nc1cccc2ccc(C)nc12 [Compound A9, 2-Methoxy-N-(2-methylquinolin-8-yl)benzamide]
HEK293 Cells (TG-induced) cell rescue (HEK293 cells): A (A represents a value greater than 50% cell rescue)
N2a Cells (TG-induced) cell rescue (N2a cells [1]): A (A represents a value greater than 50% cell rescue)
N2a Cells (H2O2-induced) cell rescue (N2a cells [2]): B (B represents a value between 10% to 50% cell rescue)

SMILES: CCOc1ccccc1C(=O)Nc1cccc2ccc(C)nc12 [Compound A10, 2-Ethoxy-N-(2-methylquinolin-8-yl)benzamide]
Increase in Vmax at 10 μM (SERCA (SR vesicles)): C′ (C′ represents an increase no greater than 20%)

SMILES: CC(C)Oc1ccc(C(=O)Nc2cccc3cccnc23)cc1 [Compound A11, 4-Isopropoxy-N-(quinolin-8-yl)benzamide]
Increase in Vmax at 10 μM (SERCA (SR vesicles)): A′ (A′ represents an increase greater than 50%)

SMILES: COc1ccc(CCC(=O)Nc2cccc3ccc(C)nc23)cc1 [Compound A23, 3-(4-Methoxyphenyl)-N-(2-methylquinolin-8-yl)propanamide]
Increase in Vmax at 10 μM (SERCA (SR vesicles)): A′ (A′ represents an increase greater than 50%)

SMILES: Cc1ccc2cccc(NC(=O)c3cc4ccccc4o3)c2n1 [Compound A27, N-(2-Methylquinolin-8-yl)benzofuran-2-carboxamide]
EC50 (CSM14.1 cells): < 20 µM
Increase in Vmax at 10 μM (SERCA (SR vesicles)): A′ (A′ represents an increase greater than 50%)
N2a Cells (H2O2-induced) cell rescue (N2a cells [2]): A (A represents a value greater than 50% cell rescue)

F [3]: 2.9%
AUC [3]: 21 ng·h/mL
Cmax [3]: 80 nM
half-life [3]: 42 min
SMILES: Cc1ccc2cccc(NC(=O)c3ccc(Br)s3)c2n1 [Compound B1, 5-Bromo-N-(2-methylquinolin-8-yl)thiophene-2-carboxamide]
Increase in Vmax at 10 μM (SERCA (SR vesicles)): B′ (B′ represents an increase between 20 to 50%)
N2a Cells (TG-induced) cell rescue (N2a cells [1]): B (B represents a value between 10% to 50% cell rescue)
N2a Cells (H2O2-induced) cell rescue (N2a cells [2]): A (A represents a value greater than 50% cell rescue)

SMILES: Cc1ccc2cccc(NC(=O)c3cc4ccccc4s3)c2n1 [Compound B2, N-(2-Methylquinolin-8-yl)benzo[b]thiophene-2-carboxamide]
Increase in Vmax at 10 μM (SERCA (SR vesicles)): A′ (A′ represents an increase greater than 50%)
N2a Cells (TG-induced) cell rescue (N2a cells [1]): A (A represents a value greater than 50% cell rescue)
N2a Cells (H2O2-induced) cell rescue (N2a cells [2]): B (B represents a value between 10% to 50% cell rescue)

SMILES: CCSc1ccc(C(=O)Nc2cccc3ccc(C)nc23)cc1 [Compound C22, 4-(Ethylthio)-N-(2-methylquinolin-8-yl)benzamide]
Cell Survival (CSM14.1 cells): D (D represents a value no greater than 1%)

SMILES: CC(C)Oc1ccc(C(=O)Nc2cccc3ccc(C(=O)O)nc23)cc1 [Compound E1, 8-(4-Isopropoxybenzamido)quinoline-2-carboxylic Acid]
N2a Cells (TG-induced) cell rescue (N2a cells [1]): A (A represents a value greater than 50% cell rescue)

SMILES: CC(C)Oc1cccc(C(=O)Nc2cccc3ccc(C(=O)O)nc23)c1 [Compound E2, 8-(3-Isopropoxybenzamido)quinoline-2-carboxylic acid]
N2a Cells (TG-induced) cell rescue (N2a cells [1]): A (A represents a value greater than 50% cell rescue)

SMILES: O=C(O)c1ccc2cccc(NC(=O)c3ccc(Br)s3)c2n1 [Compound E3, 8-(5-Bromothiophene-2-carboxamido)quinoline-2-carboxylic Acid]
N2a Cells (TG-induced) cell rescue (N2a cells [1]): A (A represents a value greater than 50% cell rescue)

SMILES: O=C(O)c1ccc2cccc(NC(=O)c3cc4ccccc4s3)c2n1 [Compound E4, 8-(Benzo[b]thiophene-2-carboxamido)quinoline-2-carboxylic Acid]
N2a Cells (TG-induced) cell rescue (N2a cells [1]): B (B represents a value between 10% to 50% cell rescue)

SMILES: Cc1cc(C)n(-c2ccc3cccc(NC(=O)c4cccc(OC(C)C)c4)c3n2)n1 [Compound F1, N-(2-(3,5-Dimethyl-1H-pyrazol-1-yl)quinolin-8-yl)-3-isopropoxybenzamide]
N2a Cells (TG-induced) cell rescue (N2a cells [1]): A (A represents a value greater than 50% cell rescue)

SMILES: Cc1cc(C)n(-c2ccc3cccc(NC(=O)c4ccc(OC(C)C)cc4)c3n2)n1 [Compound F2, N-(2-(3,5-Dimethyl-1H-pyrazol-1-yl)quinolin-8-yl)-4-isopropoxybenzamide]
N2a Cells (TG-induced) cell rescue (N2a cells [1]): A (A represents a value greater than 50% cell rescue)

SMILES: Cc1cc(C)n(-c2ccc3cccc(NC(=O)c4ccc(Br)s4)c3n2)n1 [Compound F3, 5-Bromo-N-(2-(3,5-dimethyl-1H-pyrazol-1-yl)quinolin-8-yl)thiophene-2-carboxamide]
N2a Cells (TG-induced) cell rescue (N2a cells [1]): A (A represents a value greater than 50% cell rescue)

SMILES: Cc1cc(C)n(-c2ccc3cccc(NC(=O)c4cc5ccccc5s4)c3n2)n1 [Compound F4, N-(2-(3,5-Dimethyl-1H-pyrazol-1-yl)quinolin-8-yl)benzo[b]thiophene-2-carboxamide]
N2a Cells (TG-induced) cell rescue (N2a cells [1]): B (B represents a value between 10% to 50% cell rescue)

F [3]: 0.85%
AUC [3]: 4.5 ng·h/mL
Cmax [3]: 20 nM
half-life [3]: 33.6 min
SMILES: Cc1ccc2cccc(NC(=O)c3ccc(C)s3)c2n1 [Compound G2, 5-Methyl-N-(2-methylquinolin-8-yl)thiophene-2-carboxamide]
EC50 (CSM14.1 cells): < 20 µM
Increase in Vmax at 10 μM (SERCA (SR vesicles)): A′ (A′ represents an increase greater than 50%)
N2a Cells (H2O2-induced) cell rescue (N2a cells [2]): A (A represents a value greater than 50% cell rescue)

SMILES: Cc1ccc2cccc(NC(=O)c3sc(Br)cc3Br)c2n1 [Compound G6, 3,5-Dibromo-N-(2-methylquinolin-8-yl)thiophene-2-carboxamide]
EC50 (CSM14.1 cells): < 20 µM
Increase in Vmax at 10 μM (SERCA (SR vesicles)): C′ (C′ represents an increase no greater than 20%)
N2a Cells (H2O2-induced) cell rescue (N2a cells [2]): A (A represents a value greater than 50% cell rescue)

SMILES: Cc1ccc2cccc(NC(=O)c3cc(Br)c(Br)s3)c2n1 [Compound G7, 4,5-Dibromo-N-(2-methylquinolin-8-yl)thiophene-2-carboxamide]
EC50 (CSM14.1 cells): < 20 µM
Increase in Vmax at 10 μM (SERCA (SR vesicles)): A′ (A′ represents an increase greater than 50%)
N2a Cells (H2O2-induced) cell rescue (N2a cells [2]): A (A represents a value greater than 50% cell rescue)
